{"source": "patent US20140213583A1", "about": "“PI3K Inhibitor for Use in the Treatment of Bone Cancer or for Preventing Metastatic Dissemination Primary Cancer Cells into the Bone” (NOVARTIS AG, priority 2011, published 2014)", "key": {"[1]": {"system": "453-EGFP cells (MDA-MB-453 human breast cancer cells expressing EGFP)", "experiment": "Metastasis therapy with Compound A in Rag2-/-;Il2rg-/- mice challenged i.v. with 453-EGFP cells", "type": "in vivo", "conditions": "50 mg/kg per os daily", "description": "Rag2^−/−;Il2rg^−/− breeders were kindly given by Drs. T. Nomura and M. Ito of the Central Institute for Experimental Animals (Kawasaki, Japan). Mice were then bred in our animal facilities under sterile conditions. Athymic Crl:CD-1-Foxn1^nu/nu mice (referred to as nude mice) were purchased from Charles River Italy and kept under sterile conditions. Experiments were authorized by the institutional review board of the University of Bologna and done according to Italian and European guidelines.\nMDA-MB-453 and BT-474 breast cancer cell lines were originally obtained from by Dr. Serenella M. Pupa (Istituto Nazionale dei Tumori, Milan, Italy). Cell lines were authenticated by DNA fingerprinting on the 11 Nov. 2010 (performed by DSMZ, Braunschweig, Germany). Cells were routinely cultured in Roswell Park Memorial Institute (RPMI) medium supplemented with 10% foetal bovine serum and were maintained at 37° C. in a humidified 5% CO2 atmosphere. All medium constituents were purchased from Invitrogen, Milan, Italy. In order to visualize metastatic cells/lesions, breast cancer cell lines were transfected with a plasmid expressing Enhanced Green Fluorescent Protein (pEGFP-N1, Clontech, Mountain View, Calif.) using Lipofectamine 2000 (Invitrogen). Stable transfectants were selected using G418 (Invitrogen). EGFP expression was monitored by fluorescence microscopy and quantified by cytofluorimetric analysis.\nNine-20-week-old female Rag2^−/−;Il2rg^−/− mice were used throughout this work. Local tumors were induced with 10^7 viable human tumour cells injected either subcutaneously in the right hind leg or in the fat pad of the fourth (abdominal) left mammary gland in 0.2 ml of PBS. Tumor diameters were periodically measured with digital calipers and tumor volumes calculated as […], where a=maximal tumor diameter and b=major tumor diameter perpendicular to a. For intravenous (i.v.) administrations, 2×10^6 cells in 0.4 ml PBS were injected in a tail vein. Nude mice (5-6 week-old) were treated i.v. with anti-asialo GM1 antiserum (Wako, Dusseldorf, Germany), 0.4 ml of a 1:30 dilution in PBS, to deplete NK activity, 24 h prior to the injection of human tumour cells. Pilot experiments were performed to assess for each cell line the time at which experimental metastases could be detected.\nTumor-bearing mice were sacrificed at various times (see Results), depending on tumor and metastasis growth, and were subjected to an accurate necropsy. Lungs were stained with black India ink to better outline metastases and fixed in Fekete's solution. Lung and liver metastases were counted using a dissection microscope. When EGFP-expressing cells were injected, whole mice and dissected organs were carefully examined using a Lightools imaging system (Lightools Research, Encinitas, Calif.) to detect fluorescent metastatic deposits. Quantification of metastatic load in brain and bone marrow was performed by immunofluorescence followed by cytofluorimetric analysis and by Real-Time PCR. Brain was minced with scissors and passed through a 70 μm cell strainer (Becton Dickinson, Bedford, Mass., USA) to obtain a homogeneous cell suspension. Bone marrow was flushed from both femurs in PBS and filtered through a 70 μm strainer. A mouse monoclonal antibody against human HER-2 (clone Neu 24.7, Becton Dickinson, San Jose, Calif., USA) labeled with phycoerythrin was used to quantify human cells by cytofluorometric analysis. Real-Time PCR was performed on genomic DNA extracted with 10 mM Tris-HCl buffer pH 8.3 containing 50 mM KCl, 2.5 mM MgCl2, 0.01% gelatin, 0.45% igepal, 0.45% tween 20 and 120 μg/ml proteinase K (all reagents from Sigma, Milan, Italy) by an overnight incubation at 56° C. followed by […] incubation at 95° C. to inactivate the proteinase K. A sequence of the α-satellite region of the human chromosome 17 was amplified. […]"}, "[2]": {"conditions": "from reference (8); cited from earlier work"}}, "note": "“Also recorded” adds a separate entry of the source.", "data": [{"smiles": "Nc1cc(C(F)(F)F)c(-c2cc(N3CCOCC3)nc(N3CCOCC3)n2)cn1", "note": "[Compound A, 5-(2,6-di-morpholin-4-yl-pyrimidin-4-yl)-4-trifluoromethyl-pyridin-2-ylamine]", "values": [{"measurement": "inhibition in the number of human cells in the brain, HER-2 flow cytometry", "setting": "[1]; 37 treatments, HER-2-positive cells in dissociated brain (FIG. 2B)", "result": "> 90", "unit": "%"}, {"measurement": "inhibition in the number of human cells in the brain, human-specific qPCR", "setting": "[1]; 37 treatments, brain metastatic burden by qPCR (FIG. 2A)", "result": "> 90", "unit": "%"}, {"measurement": "number of bone metastases decreased", "setting": "[1]; 37 treatments, visual count of metastatic sites per mouse (FIG. 2C)", "result": 67, "unit": "%"}, {"measurement": "growth of 453-EGFP in heavily colonized organs (brain and lungs)", "setting": "[1]; brain and lungs (FIG. 1B-C)", "result": "strongly inhibited"}, {"measurement": "incidence of metastases in different sites", "setting": "[1]; brain, bone marrow and liver, p<0.05 at least, Fisher's exact test (FIG. 1A)", "result": "a sizeable proportion of mice were metastasis-free; also recorded: significant inhibition"}, {"measurement": "reduction of the metastatic burden", "setting": "[1]; different target organs", "result": "highly significant and widespread reduction"}, {"measurement": "penetration of the blood-brain barrier", "setting": "[2]", "result": "excellent penetration"}]}]}
